# Results as given in patent US20260049104A1, “PEPTIDES WITH ANTIMICROBIAL PROPERTIES” (priority 2022, published 2026).
# Like-named read-outs stand apart in the source and are kept apart here.
# Key:
# Pseudomonas aeruginosa = type: cell-based; conditions: for MIC value: Table 15, unit inferred
# Excerpt: The experiments were repeated three times.
# Acinetobacter baumannii = conditions: for MIC value: Table 15, unit inferred
# Method: (§1) MIC screening of the peptides against a panel of ATCC and clinical strains was performed using broth microdilution method.^1 Briefly, peptides stock solutions in DMSO (0.1/G TFA) were diluted into Mueller Hinton Broth (MHB), followed by two-fold serial dilution in a 96-well plate. Bacteria culture in mid-log phase was diluted into MHB to yield […] colony-forming units (CFU)/mL. Equal volume of the starting inoculum was added to the peptide samples, then incubated for 18-20 h (37° C., 120 rpm). OD600 of the samples was then measured using Tecan Infinite M200 (TECAN, Männedorf, Switzerland). MIC is defined as the lowest peptide concentration to achieve more than 90% reduction in OD600 relative to the drug-free control. The experiments were repeated three times. Colistin-resistant clinical isolates are a kind gift from Dr. Jeanette Koh (National University Hospital, Singapore). Multidrug-resistant clinical isolates are a kind gift from Dr. Lakshminarayanan Rajamani (Singapore Eye Research Institute, Singapore).
# (§2) Kanamycin and ampicillin were used as antibacterial control agents. […] Then, sequential 2-fold serial dilutions of the mix were diluted in 50 μL MH broth and 50 μL cell cultures were added to wells. […] All assays were carried out in triplicate.
# Escherichia coli = conditions: for MIC value: Table 15, unit inferred
# Method: as §1, §2
# Staphylococcus aureus = Staphylococcus aureus ATCC 29737
# Method: as §1, §2
# Klebsiella pneumoniae = conditions: for MIC value: Table 15, unit inferred
# Method: as §1, §2
# [1] = tested on: Gram-positive and Gram-negative bacteria; conditions: panel of E. coli, K. pneumoniae, E. cloacae, A. baumannii, E. faecalis and S. aureus; preliminary screening
# Method: as §1, §2
# E. coli M6 = conditions: E. coli M6, compared with xenorceptide A2 (2)
# Method: Resistance development of E. coli M6 against xenorceptide A2 was assessed by serial passaging of the bacteria in broth containing subinhibitory concentrations of the peptide. In brief, bacteria culture at mid-log phase was diluted to 10^5-10^6 CFU/mL in MHB containing 0.25×, 0.5×, 1×, 2×, and 4×MIC of the peptide. […] A new set of peptide concentration range was added to the cultures based on the latest MIC. This process was repeated over 14 days for three independent starting cultures.
# Enterobacter cloacae = conditions: Table 15, unit inferred
# Method: as §1, §2
compound,measurement,setting,value
CC(C)[C@@H]1NC(=O)[C@@H](N)Cc2c[nH]c3cc(ccc23)C(C(N)=O)[C@@H](C(=O)N[C@@H](C)C(=O)N[C@H]2Cc3ccc(cc3)C(C(N)=O)[C@@H](C(=O)N[C@H]3Cc4c[nH]c5cc(ccc45)C(CCCN)[C@@H](C(=O)N[C@@H](CCCNC(=N)N)C(=O)N[C@@H](Cc4ccccc4)C(=O)O)NC(=O)[C@H]([C@@H](C)O)NC3=O)NC(=O)[C@H](C)NC2=O)NC1=O (some centres unmarked) [xenorceptide A8],MIC,Pseudomonas aeruginosa; Pseudomonas aeruginosa ATCC 9027,64 µg/mL
same,MIC,Acinetobacter baumannii; Acinetobacter baumannii ATCC 19606,>64 µg/mL
same,MIC,Escherichia coli; Escherichia coli ATCC 25922,2 µg/mL
same,MIC,Staphylococcus aureus,>64 µg/mL
same,MIC,Klebsiella pneumoniae; Klebsiella pneumoniae ATCC 700603,4 µg/mL
C[C@H](NC(=O)[C@H](CC(N)=O)NC(=O)[C@H](C)NC(=O)[C@@H](N)Cc1ccccc1)C(=O)N[C@H](C(=O)N[C@H]1Cc2c[nH]c3cc(ccc23)C(CCCN)[C@@H](C(=O)N[C@@H](CO)C(=O)N[C@@H](Cc2ccccc2)C(=O)O)NC(=O)[C@H](CO)NC1=O)[C@@H](C)O (some centres unmarked) [Compound 31],antibacterial activity,[1],no activity
colistin [reference compound],development of reduced susceptibility in serial passage,E. coli M6,readily became less susceptible
CC(C)[C@H](NC(=O)[C@H](Cc1c[nH]c2ccccc12)NC(=O)CNC(=O)[C@H](CCC(=O)O)NC(=O)CNC(=O)[C@@H](N)CCCNC(=N)N)C(=O)N[C@@H](CCCNC(=N)N)C(=O)N[C@@H](C)C(=O)N[C@@H](Cc1ccc(O)cc1)C(=O)N[C@H]1Cc2c[nH]c3cc(ccc23)C(CCCN)[C@@H](C(=O)N[C@@H](CCCNC(=N)N)C(=O)N[C@@H](Cc2ccccc2)C(=O)O)NC(=O)[C@H](C)NC1=O (some centres unmarked) [Compound 25],antibacterial activity,[1],"also active against these test bacteria, but weaker than 24"
CC(C)[C@@H]1NC(=O)[C@@H](N)Cc2c[nH]c3cc(ccc23)C(C(N)=O)[C@@H](C(=O)N[C@@H](C)C(=O)N[C@H]2Cc3cccc(c3)C(CCNC(=N)N)[C@@H](C(=O)N[C@H]3Cc4c[nH]c5cc(ccc45)C(CCCN)[C@@H](C(=O)N[C@@H](CCCNC(=N)N)C(=O)N[C@@H](Cc4c[nH]c5ccccc45)C(=O)O)NC(=O)[C@H](CO)NC3=O)NC(=O)[C@H](C)NC2=O)NC1=O (some centres unmarked) [xenorceptide A12-1],MIC value,Pseudomonas aeruginosa; Pseudomonas aeruginosa DM4150R,32 µg/mL
same,MIC value,Pseudomonas aeruginosa; Pseudomonas aeruginosa DM23376,> 32 µg/mL
same,MIC value,Pseudomonas aeruginosa; Pseudomonas aeruginosa DR4877/07,32 µg/mL
same,MIC value,Pseudomonas aeruginosa; Pseudomonas aeruginosa DR5790/07,32 µg/mL
same,MIC value,Acinetobacter baumannii; Acinetobacter baumanii ACβA1001,8 µg/mL
same,MIC value,Acinetobacter baumannii; Acinetobacter baumanii ACβA1002,8 µg/mL
same,MIC value,Acinetobacter baumannii; Acinetobacter baumanii ACβA1003,8 µg/mL
same,MIC value,Acinetobacter baumannii; Acinetobacter baumanii ACβA1004,8 µg/mL
same,MIC value,Enterobacter cloacae; Enterobacter cloacae CRE1010,2 µg/mL
same,MIC value,Enterobacter cloacae; Enterobacter cloacae CRE1014,8 µg/mL
same,MIC value,Enterobacter cloacae; Enterobacter cloacae CRE1015,16 µg/mL
same,MIC value,Enterobacter cloacae; Enterobacter cloacae CRE1016,8 µg/mL
same,MIC value,Enterobacter cloacae; Enterobacter cloacae CRE1017,16 µg/mL
same,MIC value,Escherichia coli; Escherichia coli M2,8 µg/mL
same,MIC value,Escherichia coli; Escherichia coli M6,2 µg/mL
same,MIC value,Escherichia coli; Escherichia coli M10,2 µg/mL
same,MIC value,Escherichia coli; Escherichia coli M11,2 µg/mL
same,MIC value,"Klebsiella pneumoniae; ATCC 25922, printed under Klebsiella pneumoniae",2 µg/mL
same,MIC value,"Klebsiella pneumoniae; CRE1006, Klebsiella pneumoniae",2 µg/mL
same,MIC value,Klebsiella pneumoniae; Klebsiella pneumoniae CRE 1007,2 µg/mL
same,MIC value,Klebsiella pneumoniae; Klebsiella pneumoniae CRE1008,4 µg/mL
same,MIC value,Klebsiella pneumoniae; Klebsiella pneumoniae CRE1011,4 µg/mL
same,MIC value,Klebsiella pneumoniae; Klebsiella pneumoniae CRE1012,4 µg/mL
C[C@H](NC(=O)[C@H]1NC(=O)[C@H](C)NC(=O)[C@@H](N)Cc2ccc(cc2)C1C(N)=O)C(=O)N[C@H](C(=O)N[C@H]1Cc2c[nH]c3cc(ccc23)C(CCCN)[C@@H](C(=O)N[C@@H](CO)C(=O)N[C@@H](Cc2ccccc2)C(=O)O)NC(=O)[C@H](CO)NC1=O)[C@@H](C)O (some centres unmarked) [Compound 30],antibacterial activity,[1],no activity
